# “Also recorded” adds a separate entry of the source.
# System: bladder vasculature
# Test: Ribbon-scanning confocal microscopy of bladder vasculature perfused with fluorescent beads
# Format: in vivo, rat
# Details: aged rats
# Source text: Bladders that had been perfused transcardially with PBS and containing 20 nm yellow-green fluorescent beads (THERMO FISHER™, F8787) to highlight the vasculature were fixed then cleared rapidly by removing lipids and dissolving light-absorbing chromophores within the tissue. Clearing the tissue increased the maximum depth of confocal imaging to many millimeters. At this stage, tissue was directly imaged for the presence of genetically expressed reporter proteins or underwent staining using immunohistochemistry (IHC) or molecular dyes. Using this method, images were acquired through bladders (and other tissues) that are 5000 micrometers thick. Volumetric data are acquired using the Caliber ID RS-G4 ribbon scanning confocal microscope, which acquired large-area images 20-40 times faster than other commercially available systems with a high nA (1.0) long working distance (8 mm) low magnification (20×) by NIKON™ Inc (Tokyo, Japan). Quantitative changes in vascular structures were compared with the volume and surface area of each bladder and of the various tissue subtypes using these methods (UT; suburothelium; mesenchyme). These methods afforded the advantage of interrogating whole tissues in a three-dimensional environment and in combination with IHC without the need to section.
# Vascular Changes: Bladders that had been perfused transcardially with PBS buffer containing 20 nm yellow-green fluorescent beads (THERMO FISHER®, F8787) to highlight the vasculature were fixed then cleared by removing lipids and dissolving light-absorbing chromophores within the tissue. Volumetric data were acquired using a Caliber ID RS-G4 ribbon scanning confocal microscope (NIKON® Inc, Tokyo, Japan), which can acquire large-area images (uses a high nA (1.0) long working distance (8 mm) with low magnification (20×)). This affords the advantage of interrogating whole tissues in a three-dimensional environment without the need to section. Real-time blood perfusion (1 mm3 tissue) was accomplished using a BLF22D laser Doppler flowmeter (Transonic Systems, Inc) with a surface probe (TypeS-APLPHS) applied to the serosal surface of the bladder (apex and neck) wall using Doppler light shift from moving RBCs to analyze flow by the Bonner algorithm. This method gives robust, non-invasive microvascular flow signals in the bladder wall of anesthetized rats.
# [1] = chronic 8-AG treatment (Examples 1-2)
smiles,measurement,setting,value
"Nc1nc2[nH]c(N)nc2c(=O)[nH]1 [8-AG, 8-Aminoguanine]",ischemic appearance of bladder tissue,[1],no longer appeared ischemic
same,tortuosity of bladder vessels,[1],restored to a younger state; also recorded: reduced the number of tortuous vessels
same,ischemic appearance of bladder tissue,"oral 8-AG 5 mg/kg/day, 6 weeks",no longer appeared ischemic
same,vascular tortuosity / tortuous vessels in bladder,"oral 8-AG 5 mg/kg/day, 6 weeks",reduced the number of tortuous vessels; also recorded: restored to a younger state
